Experimental data from patent publication US20260200919A1, “SUBSTITUTED AMINOPYRIDINE COMPOUNDS AND METHODS OF TREATING DISEASE USING SAME” (Atavistik Bio, Inc., priority 2023, published 2026).
pIC50: −log10 of the molar value.

Tests used:
[1] = target: T1, human recombinant kinase full-length AKT1 E17K (Homo sapiens, UniProt P31749, E17K); assay: AKT1 E17K kinase assay (TR-FRET, Lance); assay type: biochemical; conditions: 0.6 nM AKT1 E17K, 50 nM Ulight-CREBtide, either 50 μM ATP or 2 mM ATP (not specified which), 60 min at RT
T1 construct: Purified human recombinant kinase full-length AKT1 E17K was expressed in insect cells; made in house; host or cells: insect cells
T1 sequence (P31749 whole entry E17K): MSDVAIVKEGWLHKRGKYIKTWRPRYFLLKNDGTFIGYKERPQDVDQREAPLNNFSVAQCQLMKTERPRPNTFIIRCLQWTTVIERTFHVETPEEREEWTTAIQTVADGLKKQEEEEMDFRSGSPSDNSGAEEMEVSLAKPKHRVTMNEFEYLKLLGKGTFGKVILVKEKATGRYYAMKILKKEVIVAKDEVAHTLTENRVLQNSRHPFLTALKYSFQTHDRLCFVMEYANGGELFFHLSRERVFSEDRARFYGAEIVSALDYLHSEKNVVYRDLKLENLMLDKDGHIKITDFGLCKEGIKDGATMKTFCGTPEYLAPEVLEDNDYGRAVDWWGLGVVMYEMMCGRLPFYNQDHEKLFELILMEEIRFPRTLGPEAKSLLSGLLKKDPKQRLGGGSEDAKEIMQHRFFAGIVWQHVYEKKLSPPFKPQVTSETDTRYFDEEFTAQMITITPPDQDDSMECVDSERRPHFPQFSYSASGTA
Procedure: AKT1 E17K kinase assay: Inhibitory effects of compounds on AKT1 E17K were undertaken in a 10-pt dose response kinase activity assay measuring phospho-peptide product formation based on TR-FRET signal as described in the following paragraph.
(§1) Purified human recombinant kinase full-length AKT1 E17K was expressed in insect cells and activated in vitro by PDPK1. Ulight™-CREBtide (PerkinElmer, catalog number TRF0107) was used as the peptide substrate. The reaction buffer consisted of 50 mM HEPES pH 7.5, 10 mM MgCl2, 0.01% Triton X-100, 0.01% BSA, 2 mM DTT, 0.6 nM AKT1 E17K, 50 nM. Ulight™ CREBtide and either 50 μM ATP or 2 mM ATP. The compound solution was prepared as 10 mM DMSO stock. […] Final DMSO concentration in the assay was 1%. […] The reaction was stopped after 60 min of incubation at RT by the addition of 10 μL of Detection Mix (PerkinElmer, #CR97-100) consisting of Europium-anti-phospho-CREB (Ser133) (Perkin Elmer, catalog numberTRF0200). Incubation with the detection mix for a further 60 min allowed binding of antibody to the phospho-Ulight™ CREBtide. The fluorescence emissions at 620 nm and 665 nm after excitation at […] was measured using Envision reader. The ratio of the emissions at 665 nm and at 620 nm provided the measure for the amount of phosphorylated CREBtide product of AKT1 E17K kinase activity.

[2] = target: T2, human recombinant kinase full-length wildtype AKT1 (Homo sapiens, UniProt P31749); assay: AKT1 kinase assay (wildtype, TR-FRET, Lance); assay type: biochemical; conditions: 0.6 nM wildtype AKT1, 50 nM Ulight-CREBtide, either 50 μM ATP or 2 mM ATP (not specified which), 60 min at RT
T2 construct: Purified human recombinant kinase full-length wildtype AKT1 was expressed in insect cells; made in house; host or cells: insect cells
T2 sequence (P31749 whole entry): as the sequence (P31749 whole entry E17K) above, with K17E counted along it
Procedure: AKT1 kinase assay: Inhibitory effects of compounds on wildtype AKT1 were undertaken in a 10-pt dose response kinase activity assay measuring phospho-peptide product formation based on TR-FRET signal as described in the following paragraph.
as §1, with “full-length wildtype” for “full-length”, “AKT1” for “AKT1 E17K”, “Ulight™—CREBtide” for “Ulight™-CREBtide”, “AKT1,” for “AKT1 E17K,”, “nM Ulight™-CREBtide” for “nM. Ulight™ CREBtide”

Row | pIC50 [1] | pIC50 [2] | Structure (SMILES)
1 | 6.30 to 6.70 | > 6.30 | Nc1ncccc1-c1nc2ccc(-c3ccccc3)nc2n1-c1ccc(C(=O)Nc2ccc(C(=O)O)cc2F)nc1 [Compound 179, 4-(5-(2-(2-aminopyridin-3-yl)-5-phenyl-3H-imidazo[4,5-b]pyridin-3-yl)picolinamido)-3-fluorobenzoic acid]
2 | 6.30 to 6.70 | < 6.30 | Cc1cc(C(=O)O)ccc1C(=O)Nc1ccc(-n2c(-c3cccnc3N)nc3ccc(-c4ccccc4)nc32)cc1F [Compound 66, 4-((4-(2-(2-aminopyridin-3-yl)-5-phenyl-3H-imidazo[4,5-b]pyridin-3-yl)-2-fluorophenyl)carbamoyl)-3-methylbenzoic acid]
3 | 6.70 to 7.30 | > 6.30 | C[C@H](c1ccc(C(=O)O)cc1C(F)(F)F)N1CC(c2ccc(-n3c(-c4cccnc4N)nc4ccc(-c5ccccc5)nc43)cc2)C1 [Compound 165]
4 | 6.70 to 7.30 | > 6.30 | Nc1ncccc1-c1nc2ccc(-c3ccccc3)nc2n1-c1ccc(C2CN(Cc3ccc(C(=O)O)cc3)C2)cc1 [Compound 183, 4-((3-(4-(2-(2-aminopyridin-3-yl)-5-phenyl-3H-imidazo[4,5-b]pyridin-3-yl)phenyl)azetidin-1-yl)methyl)benzoic acid]
5 | < 6.30 | > 6.30 | NC(=O)Cc1cccc(C(=O)NCc2ccc(-n3c(-c4cccnc4N)nc4ccc(-c5ccccc5)nc43)cc2)c1 [Compound 43, 3-(2-amino-2-oxoethyl)-N-(4-(2-(2-aminopyridin-3-yl)-5-phenyl-3H-imidazo[4,5-b]pyridin-3-yl)benzyl)benzamide]
6 | < 6.30 | > 6.30 | CC(C)c1ccc2nc(-c3cccnc3N)n(-c3ccc(C4CN(Cc5ccc(C(=O)O)cc5)C4)cc3)c2n1 [Compound 173, 4-((3-(4-(2-(2-aminopyridin-3-yl)-5-isopropyl-3H-imidazo[4,5-b]pyridin-3-yl)phenyl)azetidin-1-yl)methyl)benzoic acid]
7 | > 7.30 | > 6.30 | Cc1cc(C(=O)O)ccc1C(=O)N1CC(c2ccc(-n3c(-c4cccnc4N)nc4ccc(-c5ccccc5)nc43)cc2)C1 [Compound 75, 4-(3-(4-(2-(2-aminopyridin-3-yl)-5-phenyl-3H-imidazo[4,5-b]pyridin-3-yl)phenyl)azetidine-1-carbonyl)-3-methylbenzoic acid]
8 | < 6.30 | > 6.30 | COC(=O)Cc1cccc(C(=O)NCc2ccc(-n3c(-c4cccnc4N)nc4ccc(-c5ccccc5)nc43)cc2)c1F [Compound 33, methyl 2-(3-((4-(2-(2-aminopyridin-3-yl)-5-phenyl-3H-imidazo[4,5-b]pyridin-3-yl)benzyl)carbamoyl)-2-fluorophenyl)acetate]
9 | 6.70 to 7.30 | > 6.30 | Nc1ncccc1-c1nc2ccc(-c3ccccc3)nc2n1-c1ccc(CNC(=O)c2cccc(CC(=O)O)c2)cc1 [Compound 32, 2-(3-((4-(2-(2-aminopyridin-3-yl)-5-phenyl-3H-imidazo[4,5-b]pyridin-3-yl)benzyl)carbamoyl)phenyl)acetic acid]
10 | 6.30 to 6.70 | > 6.30 | Nc1ncccc1-c1nc2ccc(-c3ccccc3)nc2n1-c1ccc(CNC(=O)c2cccc(S(=O)(=O)O)c2F)cc1 [Compound 9, 3-((4-(2-(2-aminopyridin-3-yl)-5-phenyl-3H-imidazo[4,5-b]pyridin-3-yl)benzyl)carbamoyl)-2-fluorobenzenesulfonic acid]
11 | < 6.30 | > 6.30 | CC(c1ccc(C(=O)O)cc1)N1CCCC(c2ccc(-n3c(-c4cccnc4N)nc4ccc(-c5ccccc5)nc43)cc2)C1 (stereo not shown) [Compound 170, 4-(1-(3-(4-(2-(2-aminopyridin-3-yl)-5-phenyl-3H-imidazo[4,5-b]pyridin-3-yl)phenyl)piperidin-1-yl)ethyl)benzoic acid]
12 | < 6.30 | > 6.30 | Cc1cc(C(=O)Nc2ccc(-n3c(-c4cccnc4N)nc4ccc(-c5ccccc5)nc43)c(C)n2)c(C)cc1C(=O)O [Compound 155]
13 | < 6.30 | < 6.30 | COc1ccc2nc(-c3cccnc3N)n(-c3ccc(CNC(=O)c4cccc(CC(=O)O)c4)cc3)c2c1 [Compound 104, 2-(3-((4-(2-(2-aminopyridin-3-yl)-6-methoxy-1H-benzo[d]imidazol-1-yl)benzyl)carbamoyl)phenyl) acetic acid]
14 | 6.70 to 7.30 | > 6.30 | C[C@H](c1ccc(C(=O)O)cc1)N1CC(c2ccc(-n3c(-c4cccnc4N)nc4ccc(-c5ccccc5)nc43)cc2)C1 (single isomer, unassigned) [Compound 125]
15 | < 6.30 | < 6.30 | Nc1ncccc1-c1nc2cccnc2n1-c1ccc(CNC(=O)c2cccc(CC(=O)O)c2)cc1 [Compound 101, 2-(3-((4-(2-(2-aminopyridin-3-yl)-3H-imidazo[4,5-b]pyridin-3-yl)benzyl)carbamoyl)phenyl) acetic acid]
16 | 6.30 to 6.70 | > 6.30 | Nc1ncccc1-c1nc2ccc(-c3ccccc3)nc2n1-c1ccc(CNC(=O)c2cccc(CC(=O)O)c2F)cc1 [Compound 34, 2-(3-((4-(2-(2-aminopyridin-3-yl)-5-phenyl-3H-imidazo[4,5-b]pyridin-3-yl)benzyl)carbamoyl)-2-fluorophenyl)acetic acid]
17 | 6.70 to 7.30 | > 6.30 | Nc1ncccc1-c1nc2ccc(-c3ccccc3)nc2n1-c1ccc(CNC(=O)c2ccc(CC(=O)O)cc2)cc1 [Compound 30, 2-(4-((4-(2-(2-aminopyridin-3-yl)-5-phenyl-3H-imidazo[4,5-b]pyridin-3-yl)benzyl)carbamoyl)phenyl)acetic acid]
18 | > 7.30 | > 6.30 | Nc1ncccc1-c1nc2ccc(-c3ccccc3)nc2n1-c1ccc(C2CN(C(=O)c3ccc(C(=O)O)cc3)C2)cc1 [Compound 70, 4-(3-(4-(2-(2-aminopyridin-3-yl)-5-phenyl-3H-imidazo[4,5-b]pyridin-3-yl)phenyl)azetidine-1-carbonyl)benzoic acid]
19 | < 6.30 | > 6.30 | COC(=O)c1ccc(C(=O)N2CC(c3ccc(-n4c(-c5cccnc5N)nc5ccc(-c6ccccc6)nc54)cc3)C2)cc1 [Compound 69, methyl 4-(3-(4-(2-(2-aminopyridin-3-yl)-5-phenyl-3H-imidazo[4,5-b]pyridin-3-yl)phenyl)azetidine-1-carbonyl)benzoate]
20 | < 6.30 | > 6.30 | COC(=O)CCc1cccc(C(=O)NCc2ccc(-n3c(-c4cccnc4N)nc4cc(-c5cccnc5)cnc43)cc2)c1 [Compound 93, methyl 3-(3-((4-(2-(2-aminopyridin-3-yl)-6-(pyridin-3-yl)-3H-imidazo[4,5-b]pyridin-3-yl)benzyl)carbamoyl)phenyl) propanoate]
21 | < 6.30 | > 6.30 | C[C@@H](c1ccc(C(=O)O)cc1)N1CC(c2ccc(-n3c(-c4cccnc4N)nc4ccc(-c5ccccc5)nc43)cc2)C1 (single isomer, unassigned) [Compound 126]
22 | 6.70 to 7.30 | > 6.30 | Nc1ncccc1-c1nc2ccc(-c3ccccc3)nc2n1-c1ccc(C2CN(C(=O)c3cccc(C(=O)O)c3)C2)cc1 [Compound 72, 3-(3-(4-(2-(2-aminopyridin-3-yl)-5-phenyl-3H-imidazo[4,5-b]pyridin-3-yl)phenyl)azetidine-1-carbonyl)benzoic acid]
23 | 6.30 to 6.70 | > 6.30 | CC(C(=O)O)c1cccc(C(=O)NCc2ccc(-n3c(-c4cccnc4N)nc4ccc(-c5ccccc5)nc43)cc2)c1F (stereo not shown) [Compound 37, 2-(3-((4-(2-(2-aminopyridin-3-yl)-5-phenyl-3H-imidazo[4,5-b]pyridin-3-yl)benzyl)carbamoyl)-2-fluorophenyl) propanoic acid]
